{
  "source": "patent US9352010B2",
  "about": "“Treatment of HIV-1 infection and AIDS” (The J. David Gladstone Institutes, priority 2011, dated 2016)",
  "key": {"[1]": {"test_system": "CD4 T cells in HIV-1 (NL4-3)-infected HLACs", "experiment": "CD4 T-cell death in HIV-1-infected HLACs, viable CD4 T cells by flow cytometry", "type": "cell-based, human", "conditions": "FIG. 15, 4 different donors"}, "[2]": {"test_system": "HIV-1 reverse transcription products", "experiment": "Taqman QPCR of HIV-1 reverse transcription products in infected CD4 T-cells", "type": "cell-based, human", "conditions": "16 hours after infection with NL4-3, versus untreated cells", "description": "Fresh HLACs were washed once with PBS and resuspended with PBS containing 5 mM EDTA and 2% fetal bovine serum. CD4 T-cells were isolated from HLACs by positive selection on CD4 microbeads (Miltenyi) and cultured overnight in 96-well U-bottomed plates (1×10^6 cells/well) as described above, and AZT was added to the indicated cell samples. Next day, the rest of the drugs were added to the indicated cell samples at concentrations as described above. Cells were chilled on ice for 15 min and DNAse-treated (Ambion, 60 U/ml, 1 hour, 37° C.) NL4-3 or Δvif NL4-3 virions (200 ng/well) were added. After a 1 hour incubation with virions on ice, cells were spinoculated at 1200 g for 2 hours at 4° C., incubated at 37° C. for 2 hours, washed three times with cold PBS, and resuspended in fresh RPMI with the indicated drugs. Eight or 16 hours after spinoculation, cell pellets were frozen at −80° C. Total DNA was purified from each cell pellet with a DNAse kit (Qiagen). Primer and probe sequences used to detect reverse transcription products are provided herein. QPCR reactions were performed in triplicates in TaqMan universal PCR master mix using each primer at 3.75 μM and probe at 2.5 μM. After 15 minutes at 95° C., reactions underwent 50 cycles of 15 sec at 95° C. followed by 1 min at 60° C. in an ABI Prism 7900HT (Applied Biosystems).\nNext the status of HIV-1 reverse transcription in tonsillar CD4 T-cells after infection was examined. […] Taqman-based quantitative real-time PCR (QPCR) was used to quantify the synthesis of reverse transcription products in isolated CD4 T-cells from HLAC 16 hours after infection with NL4-3. Specific QPCR primers and probes were designed (Table 1) to monitor sequential steps in reverse transcription including generation of strong-stop DNA, first template exchange (Nef), and DNA strand elongation (Env) (FIG. 10A)"}, "[3]": {"test_system": "lactate dehydrogenase (LDH) release", "experiment": "LDH release from HIV-1-infected HLACs (pyroptosis)", "type": "cell-based, human", "conditions": "caspase inhibitors 50 μM or 100 μM, 3 days, FIG. 16C", "description": "Caspase-1 activation can lead to a highly inflammatory form of cell death called pyroptosis. To gain insight into how CD4 T cells die, it was determined whether HIV infection in CD4 T cells induce pyroptosis cell death, as measured by lactate dehydrogenase (LDH) release. HLACs were left uninfected or infected with NL4-3 in the presence of no drugs, efavirenz, AMD3100, or caspase inhibitors (50 μM or 100 μM), as indicated in FIG. 16C. After 3 days, the supernatants were assayed for the cytosolic enzyme lactate dehydrogenase (LDH) and the LDH released by dying cells was quantified."}, "HIV-1": {"test_system": "HIV-1", "experiment": "microbe, parasite or virus in culture", "description": "(A and C) Concentrations of T20 that block viral infection. […] One hour before incubation with the virus, cells were pretreated with T20 or left untreated. At 12 hours, cells were washed extensively and cultured under the same conditions. On day 9, the viral concentration was determined using a p24gag FLAQ assay. The amount of p24gag accumulated in the absence of drugs by each viral clone (A) or by SKY (C) was defined as 100%. (B and D) Effect of T20 on indirect killing. CFSE-labeled cells were co-cultured with cells infected with the indicated viral clones in the presence of 5 μM AZT and the indicated concentrations of T20. After 6 days, indirect killing in the mixed cultures was assessed. The number of viable CFSE-positive CD4 T-cells co-cultured with uninfected cells in the presence of AZT was defined as 100% (not shown). To allow successful initial infection the GIA-SKY mutants were pseudotyped with the VSV-G envelope. NL4-3, WT lab-adapted virus; WEAU 16-8, primary virus; SIM, T20-resistant virus; GIA-SKY, T20-dependent virus; GIA and SKY, single-domain mutant viruses. Representative data from three independent experiments with different donors are shown. See also FIG. 5, below.\nHLACs were infected with viruses derived from the indicated HIV proviral clones in the presence of the indicated concentrations of AZT or in the absence of drugs. Six days after infection the amount of p24^gag in the medium was determined by FLAQ assay. The amount of p24^gag in the medium after infection wash (day 0) was defined as 0%. […] Viral incorporation of endogenous A3G was measured by immunoblot analysis of purified NL4-3 and Δvif NL4-3 virions harvested from 1 ml of supernatant from infected HLACs. Doses reflect 1:10 dilutions. […] Resting or activated CFSE-labeled cells were co-cultured with cells infected with WT or Δvif NL4-3 in the presence or absence of the following drugs, AZT (5 μM), AMD3100 (250 nM), the NNRTIs Efavirenz (100 nM), and Nevirapine (1 μM), or the integration inhibitors Raltegravir (30 μM) and 118-D-24 (60 μM). Data are representative of four independent experiments performed with cells from four different donors. (E) A method to assess indirect killing in HLAC with non-infectious HIV-1 clones. Fresh human tonsil is processed into HLAC and cells are cultured in suspension. At the same time 293T-cells are transfected with 1 μg HIV-1 DNA in a 24-well plate. After 12 hours, 293T-cells are washed and overlayed with 3×10^6 HLAC cells in RPMI in the presence of the indicated drugs. Virus-producing 293T-cells directly interact with target overlaying HLAC cells. After 24 hours, the HLAC suspensions are collected from wells and analyzed by flow cytometry. […] HLAC were cultured with the indicated drugs 3 hours before co-culture with 293T-cells. Percentages are normalized to the number of viable CD4 T-cells in HLAC overlaying non-transfected 293T-cells in the presence of AZT, as depicted by (*). Error bars represent standard error of the mean of three experiments performed using cells from three different HLAC donors."}},
  "note": "pIC50: −log10 of the molar value.",
  "data": [
    {"compound": "c1cc(CN2CCCNCCNCCCNCC2)ccc1CN1CCCNCCNCCCNCC1", "note": "[AMD3100]", "values": [
      {"measurement": "death of infected CD4 T-cells", "setting": "[1]", "result": "inhibit the death of infected CD4 T-cells"},
      {"measurement": "reverse transcription products corresponding to strong-stop DNA", "setting": "[2]", "result": "greatly reduced"},
      {"measurement": "LDH release from HIV-1 infected cells", "setting": "[3]", "result": "LDH was not released"}
    ]},
    {"compound": "Cc1cn([C@H]2C[C@H](N=[N+]=[N-])[C@@H](CO)O2)c(=O)[nH]c1=O", "note": "[AZT]", "values": [
      {"measurement": "reverse transcription products corresponding to strong-stop DNA", "setting": "[2]", "result": "similar"},
      {"measurement": "pIC50", "setting": "HIV-1; Human immunodeficiency virus 1, in Homo sapiens, read-out: concentration achieving half maximal inhibitory effect", "result": 6.30},
      {"measurement": "concentration that blocks viral replication", "setting": "HIV-1; NL4-3-infected and AZT-sensitive clones", "result": 0.5, "unit": "µM"}
    ]},
    {"compound": "O=C1Nc2ccc(Cl)cc2[C@@](C#CC2CC2)(C(F)(F)F)O1", "note": "[efavirenz]", "values": [
      {"measurement": "death of infected CD4 T-cells", "setting": "[1]", "result": "inhibit the death of infected CD4 T-cells"},
      {"measurement": "LDH release from HIV-1 infected cells", "setting": "[3]", "result": "LDH was not released"}
    ]},
    {"compound": "enfuvirtide", "values": [
      {"measurement": "concentration at which inhibition of infection begins", "setting": "HIV-1", "result": "> 2", "unit": "µg/mL"},
      {"measurement": "concentration giving complete inhibition of infection", "setting": "HIV-1", "result": 0.1, "unit": "µg/mL"},
      {"measurement": "concentration required for complete inhibition of infection", "setting": "HIV-1", "result": 10, "unit": "µg/mL"},
      {"measurement": "inhibition of infection", "setting": "HIV-1", "result": "did not inhibit infection"},
      {"measurement": "replication of T20-dependent mutant GIA-SKY", "setting": "HIV-1", "result": "readily replicated"}
    ]}
  ]
}
